Key:
[1] = molecular target: human norepinephrine transporter (NET) (Homo sapiens (Human), UniProt P23975); assay: Scintillation Proximity Assay (SPA) competition binding, human NET; settings: recombinant hNET-CHO membranes, [3H]nisoxetine
Source text: (§1) Measure of Affinity to the Human Transporters DAT, NET and SERT
(§2) Affinity is expressed in terms of inhibition constant (Ki) of the compounds of the invention for DAT, NET and SERT, and it is typically calculated from the IC50 values obtained in competition experiments using Cheng and Prusoff equation (Cheng and Prusoff, Biochem. Pharmacol. 22:3099, 1973). In the context of the present invention pKi values (corresponding to the antilogarithm of Ki) are used instead of Ki; pKi are only estimated to be accurate to about 0.3 log unit.
(§3) Scintillation Proximity Assay (SPA) for Human DAT, NET and SERT Binding
(§4) Chinese Hamster Ovary (CHO) cells stably expressing either human DAT (hDAT-CHO) or human NET (hNET-CHO) or human SERT (hSERT-CHO) are used for the membrane preparations for radioligand binding assays using Scintillation proximity Assay (SPA) technique. Each cell line is cultured independently in F-12K Nutrient Mixture containing 10% of Fetal Bovine Serum (FBS) supplemented with 450 μg/ml G-418. When cells are at 70-80% of confluence 3 mM Na Butyrate was added to the cell culture medium. After 24 h of incubation, the culture medium was removed and the cells detached with Versene (DAT) or by scraping (NET and SERT). Cell suspension is centrifuged at 41,000 g for 10 minutes at 4° C. The resultant pellets are re-suspended in 15 volumes of Ice-cold buffer (20 mM HEPES, 145 mM NaCl, 5 mM KCl, pH7.3), homogenized using an Ultra Turrax homogeniser and centrifuged as before. The resultant membrane pellets are re-suspended in up to 15 volume of ice-cold buffer, incubated for 20 minutes at 37-C and centrifuged as before at 41,000 g. The final membrane pellets are re-suspended into 5-10 volumes of ice-cold buffer, dispensed into 0.5 ml aliquots and stored at −80° C. until use. Protein concentration for each preparation is determined using Bio-Rad Protein Assay kit.
(§5) The affinity of the compounds of the invention to the human DAT or NET or SERT transporters is assessed by using the [^3H]WIN-35,428 or [^3H]nisoxetine or [^3H]citalopram binding assays in recombinant human DAT, NET and SERT membranes with the SPA technology. The final assay volume is 50 μL in 384 well plates.
(§6) Briefly, 0.5 μL of test compound in neat DMSO or 0.5 μL of DMSO for total binding (TB) or 0.5 μL of indatraline 1 mM (10 μM final concentration) for non specific binding (NSB) are added to the assay plate. 50 μL of the SPA mixture is added to each well, containing: 30 μg/mL or 10 μg/mL or 25 μg/mL DAT, NET, SERT membranes, respectively; 5 nM [^3H]WIN-35,428 or 5 nM [^3H]nisoxetine or 1 nM [^3H]citalopram, for DAT, NET, SERT assay, respectively; 2.5 mg/mL or 1 mg/mL or 4 mg/mL WGA-PVT SPA beads (PerkinElmer RPNQ0001, for DAT, NET, SERT assay, respectively. All components are added to Assay Buffer (20 mM HEPES pH 7.4, 145 mM NaCl, 5 mM KCl, 0.01% Pluronic F-127). 0.02% BSA was used for DAT binding only. Plates are sealed with Topseal A and centrifuged 1 min, 800 rpm. Plates are loaded into a 1450 Microbeta TriLux (Perkin-Elmer) plate reader and the radioactivity counted after at least 4 hrs or overnight incubation at room temperature. Curve fitting and IC50 estimations are performed using a four parameter model in XLfit (IDBS, Guilford, UK) for Microdoft Excel (Microsoft, Redmond, Wash.).

[2] = molecular target: human serotonin transporter (SERT) (Homo sapiens (Human), UniProt P31645); assay: Scintillation Proximity Assay (SPA) competition binding, human SERT; settings: recombinant hSERT-CHO membranes, [3H]citalopram
Source text: as §1, §2, §3, §4, §5, §6

[3] = molecular target: human dopamine transporter (DAT) (Homo sapiens (Human), UniProt Q01959); assay: Scintillation Proximity Assay (SPA) competition binding, human DAT; settings: recombinant hDAT-CHO membranes, [3H]WIN-35,428
Source text: as §1
In the context of the present invention pKi values (corresponding to the antilogarithm of Ki) are used instead of Ki; pKi are only estimated to be accurate to about 0.3 log unit.
as §3, §4, §5, §6

Sequence of human dopamine transporter (DAT) (Q01959 whole entry): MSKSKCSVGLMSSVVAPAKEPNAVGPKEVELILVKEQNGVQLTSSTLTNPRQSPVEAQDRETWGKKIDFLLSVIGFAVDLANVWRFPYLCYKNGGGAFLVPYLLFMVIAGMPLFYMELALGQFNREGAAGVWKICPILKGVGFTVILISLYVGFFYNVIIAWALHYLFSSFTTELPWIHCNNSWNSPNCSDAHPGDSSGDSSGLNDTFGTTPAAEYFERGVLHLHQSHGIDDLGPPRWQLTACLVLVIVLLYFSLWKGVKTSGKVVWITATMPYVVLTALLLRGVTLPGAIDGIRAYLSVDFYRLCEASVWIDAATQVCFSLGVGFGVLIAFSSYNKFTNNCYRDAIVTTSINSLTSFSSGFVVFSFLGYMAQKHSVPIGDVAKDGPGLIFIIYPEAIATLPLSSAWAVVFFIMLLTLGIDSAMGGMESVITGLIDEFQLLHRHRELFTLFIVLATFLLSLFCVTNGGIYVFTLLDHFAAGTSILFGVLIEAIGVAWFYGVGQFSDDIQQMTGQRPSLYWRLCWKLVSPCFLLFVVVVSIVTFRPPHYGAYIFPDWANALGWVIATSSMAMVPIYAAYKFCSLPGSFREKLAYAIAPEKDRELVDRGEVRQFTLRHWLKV
Sequence of human serotonin transporter (SERT) (P31645 whole entry): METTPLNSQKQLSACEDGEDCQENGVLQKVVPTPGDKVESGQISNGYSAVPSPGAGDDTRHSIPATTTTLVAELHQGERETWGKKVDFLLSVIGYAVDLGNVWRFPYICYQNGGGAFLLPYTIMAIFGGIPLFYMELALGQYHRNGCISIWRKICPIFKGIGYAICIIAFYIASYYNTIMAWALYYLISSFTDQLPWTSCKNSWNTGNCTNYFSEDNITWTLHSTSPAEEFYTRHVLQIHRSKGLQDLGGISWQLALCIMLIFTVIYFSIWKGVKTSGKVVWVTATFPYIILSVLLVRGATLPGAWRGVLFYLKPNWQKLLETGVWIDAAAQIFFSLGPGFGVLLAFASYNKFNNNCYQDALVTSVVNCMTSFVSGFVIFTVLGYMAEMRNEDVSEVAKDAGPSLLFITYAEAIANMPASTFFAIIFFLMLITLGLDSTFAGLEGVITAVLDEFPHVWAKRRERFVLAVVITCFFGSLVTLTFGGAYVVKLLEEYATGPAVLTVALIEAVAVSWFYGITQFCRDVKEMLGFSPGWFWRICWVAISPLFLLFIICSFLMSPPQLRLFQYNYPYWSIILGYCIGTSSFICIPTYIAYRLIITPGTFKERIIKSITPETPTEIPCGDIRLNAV
Sequence of human norepinephrine transporter (NET) (P23975 whole entry): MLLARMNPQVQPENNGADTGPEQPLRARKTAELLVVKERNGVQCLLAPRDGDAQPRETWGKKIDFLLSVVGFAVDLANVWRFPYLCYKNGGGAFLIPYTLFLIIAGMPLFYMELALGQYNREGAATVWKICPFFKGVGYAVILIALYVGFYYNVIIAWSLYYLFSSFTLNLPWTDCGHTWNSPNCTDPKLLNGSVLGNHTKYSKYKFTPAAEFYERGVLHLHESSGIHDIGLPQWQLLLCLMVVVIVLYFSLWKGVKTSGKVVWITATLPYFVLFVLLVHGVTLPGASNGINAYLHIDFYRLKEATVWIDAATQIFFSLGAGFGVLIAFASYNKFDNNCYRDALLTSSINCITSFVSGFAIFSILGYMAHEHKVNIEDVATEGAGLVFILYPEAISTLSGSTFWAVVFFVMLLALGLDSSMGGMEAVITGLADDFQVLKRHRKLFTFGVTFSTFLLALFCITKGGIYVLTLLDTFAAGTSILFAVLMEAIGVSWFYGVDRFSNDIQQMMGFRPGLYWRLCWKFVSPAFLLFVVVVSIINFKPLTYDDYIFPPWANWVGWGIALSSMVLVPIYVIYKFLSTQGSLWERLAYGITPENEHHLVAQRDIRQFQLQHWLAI

O[C@H]1CNCC[C@@]12CCN(c1nc(Oc3cccc(F)c3)cc(C(F)(F)F)n1)C2 (single isomer, unassigned) [Example 98, 2-[4-(3-fluorophenoxy)-6-(trifluoromethyl)pyrimidin-2-yl]-2,8-diazaspiro[4.5]decan-6-ol]
IC50 [1]: 437 nM | IC50 [2]: 11.2 µM

O[C@H]1CNCC[C@@]12CCN(c1nc(Oc3cccc(F)c3)cc(C(F)(F)F)n1)C2 (single isomer, unassigned) [Example 99, 2-[4-(3-fluorophenoxy)-6-(trifluoromethyl)pyrimidin-2-yl]-2,8-diazaspiro[4.5]decan-6-ol]
IC50 [1]: 245 nM | IC50 [2]: 11.2 µM

O[C@H]1CNCC[C@@]12CCN(c1nc(Oc3cccc(F)c3)cc(C(F)(F)F)n1)C2 (single isomer, unassigned) [Example 100, 2-[4-(3-fluorophenoxy)-6-(trifluoromethyl)pyrimidin-2-yl]-2,8-diazaspiro[4.5]decan-6-ol]
IC50 [1]: 398 nM | IC50 [2]: 6.92 µM

O[C@H]1CNCC[C@@]12CCN(c1nc(Oc3cccc(F)c3)cc(C(F)(F)F)n1)C2 (single isomer, unassigned) [Example 101, 2-[4-(3-fluorophenoxy)-6-(trifluoromethyl)pyrimidin-2-yl]-2,8-diazaspiro[4.5]decan-6-ol]
IC50 [1]: 263 nM | IC50 [2]: 11.2 µM

Cl.Fc1cccc(Oc2cc(F)c(F)cc2N2CCC3(CC2)CNCCO3)c1 [Example 2, 9-[4,5-difluoro-2-(3-fluorophenoxy)phenyl]-1-oxa-4,9-diazaspiro[5.5]undecane hydrochloride]
pIC50 DAT [3]: 8.14 | pIC50 NET [1]: 6.03 | pIC50 SERT [2]: 6.49

c1ccc(Oc2ccccc2N2CCC3(CC2)CNCCO3)cc1 [Example 3, 9-(2-phenoxyphenyl)-1-oxa-4,9-diazaspiro[5.5]undecane]
pIC50 DAT [3]: 6.09 | pIC50 NET [1]: 5.28 | pIC50 SERT [2]: 5.02

c1ccc(Oc2cccc(N3CCC4(CC3)CNCCO4)c2)cc1 [Example 6, 9-(3-phenoxyphenyl)-1-oxa-4,9-diazaspiro[5.5]undecane]
pIC50 DAT [3]: 7.41 | pIC50 NET [1]: 5.83 | pIC50 SERT [2]: 6.12

Cl.Fc1cccc(Oc2cc(F)cc(N3CCC4(CC3)CNCCO4)c2)c1 [Example 9, 9-[3-fluoro-5-(3-fluorophenoxy)phenyl]-1-oxa-4,9-diazaspiro[5.5]undecane hydrochloride]
pIC50 DAT [3]: 8.38 | pIC50 NET [1]: 6.91 | pIC50 SERT [2]: 7.00

Fc1cccc(Oc2cc(N3CCC4(CC3)CNCCO4)c(F)cc2F)c1 [Example 12, 9-[2,4-difluoro-5-(3-fluorophenoxy)phenyl]-1-oxa-4,9-diazaspiro[5.5]undecane]
pIC50 DAT [3]: 6.78 | pIC50 NET [1]: 5.75 | pIC50 SERT [2]: 5.97

Fc1cccc(Oc2cc(N3CCC4(CC3)CNCCO4)cc(F)c2F)c1 [Example 15, 9-[3,4-difluoro-5-(3-fluorophenoxy)phenyl]-1-oxa-4,9-diazaspiro[5.5]undecane]
pIC50 DAT [3]: 7.05 | pIC50 NET [1]: 6.02 | pIC50 SERT [2]: 7.03

Fc1cccc(Oc2ccc(F)c(N3CCC4(CC3)CNCCO4)c2F)c1 [Example 23, 9-[2,6-difluoro-3-(3-fluorophenoxy)phenyl]-1-oxa-4,9-diazaspiro[5.5]undecane]
pIC50 DAT [3]: 8.32 | pIC50 NET [1]: 6.91 | pIC50 SERT [2]: 6.16

OC1CNCCC12CCN(c1nc(Oc3cccc(F)c3)cc(C(F)(F)F)n1)C2 (stereo not drawn) [Example 96, 2-[4-(3-fluorophenoxy)-6-(trifluoromethyl)pyrimidin-2-yl]-2,8-diazaspiro[4.5]decan-6-ol]
pIC50 NET [1]: 6.62 | pIC50 SERT [2]: 5.25

OC1CNCCC12CCN(c1nc(Oc3cccc(F)c3)cc(C(F)(F)F)n1)C2 (stereo not drawn) [Example 97, 2-[4-(3-fluorophenoxy)-6-(trifluoromethyl)pyrimidin-2-yl]-2,8-diazaspiro[4.5]decan-6-ol]
pIC50 NET [1]: 6.62 | pIC50 SERT [2]: 5.34
